Measured values from ChEMBL document CHEMBL2046440, “C-Aryl 5a-carba-β-d-glucopyranosides as novel sodium glucose cotransporter 2 (SGLT2) inhibitors for the treatment of type 2 diabetes” (Bioorg Med Chem, 2012).
The source made the active and inactive calls. The calls are words filed in the database; no cut-off is given here.

Legend:
[1] = tested on: Mus musculus; assay: Hypoglycemic effect in db/db mouse assessed as reduction in glucose AUC (0 to 8 hrs) at 30 mg/kg, po administered as single dose by hexokinase method relative to untreated control; assay type: functional; parameters: scale not given: the % may be the effect or the level left
[2] = target: T1, Sodium/glucose cotransporter 2 (Homo sapiens, UniProt P31639); assay: Inhibition of human SGLT2 expressed in CHO-K1 cells by [14C]AMG uptake assay; assay type: cell-based
T1 sequence (P31639 whole entry): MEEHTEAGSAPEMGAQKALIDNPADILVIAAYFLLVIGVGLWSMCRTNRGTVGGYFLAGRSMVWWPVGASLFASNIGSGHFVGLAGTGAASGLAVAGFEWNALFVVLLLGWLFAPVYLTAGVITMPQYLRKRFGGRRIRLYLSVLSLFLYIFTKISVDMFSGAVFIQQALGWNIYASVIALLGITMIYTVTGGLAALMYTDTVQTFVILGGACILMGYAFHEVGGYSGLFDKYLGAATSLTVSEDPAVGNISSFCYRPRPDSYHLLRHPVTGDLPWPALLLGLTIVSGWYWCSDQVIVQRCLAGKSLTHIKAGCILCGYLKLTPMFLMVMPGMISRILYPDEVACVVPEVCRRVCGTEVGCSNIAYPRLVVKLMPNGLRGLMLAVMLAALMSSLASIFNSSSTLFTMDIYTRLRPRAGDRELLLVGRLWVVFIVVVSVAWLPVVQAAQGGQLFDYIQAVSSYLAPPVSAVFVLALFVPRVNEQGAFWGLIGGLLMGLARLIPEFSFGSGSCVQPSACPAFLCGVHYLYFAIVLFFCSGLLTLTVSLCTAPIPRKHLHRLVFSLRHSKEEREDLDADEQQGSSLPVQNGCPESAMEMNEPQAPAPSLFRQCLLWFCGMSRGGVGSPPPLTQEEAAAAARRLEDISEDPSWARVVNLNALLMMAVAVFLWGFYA

[3] = tested on: Mus musculus; assay: Hypoglycemic effect in db/db mouse assessed as reduction in glucose level at 30 mg/kg, po measured 4 hrs post dose administered as single dose by hexokinase method; assay type: functional, organism-based; parameters: dose 30 mg/kg
[4] = tested on: Mus musculus; assay: Hypoglycemic effect in db/db mouse assessed as reduction in glucose level at 30 mg/kg, po measured 8 hrs post dose administered as single dose by hexokinase method; assay type: functional, organism-based; parameters: dose 30 mg/kg
[5] = target: CYP3A4 (Homo sapiens, UniProt P08684); assay: in vitro; conditions: probe BFC
Sequence of CYP3A4 (P08684 whole entry): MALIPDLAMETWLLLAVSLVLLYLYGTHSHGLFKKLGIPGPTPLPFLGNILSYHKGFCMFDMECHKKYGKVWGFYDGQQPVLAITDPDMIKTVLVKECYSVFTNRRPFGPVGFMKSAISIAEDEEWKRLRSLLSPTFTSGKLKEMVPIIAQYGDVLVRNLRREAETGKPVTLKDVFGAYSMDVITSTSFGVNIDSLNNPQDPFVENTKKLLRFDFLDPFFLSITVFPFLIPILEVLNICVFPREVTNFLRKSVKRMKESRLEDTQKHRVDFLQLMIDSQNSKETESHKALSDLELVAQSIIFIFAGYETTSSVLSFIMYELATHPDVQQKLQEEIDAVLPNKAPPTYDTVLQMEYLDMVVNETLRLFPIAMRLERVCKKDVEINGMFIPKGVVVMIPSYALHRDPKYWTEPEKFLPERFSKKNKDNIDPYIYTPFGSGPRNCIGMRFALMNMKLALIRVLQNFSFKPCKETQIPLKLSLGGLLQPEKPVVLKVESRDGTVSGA
Description: Potency index, ratio of IC50 for CYP3A4 (unknown origin) using BFC substrate in which compound added to reaction mixture simultaneously with BFC substrate to IC50 for CYP3A4 using BFC substrate in which compound added to reaction mixture before addition of BFC substrate

[6] = target: T2, Cytochrome P450 3A4 (Homo sapiens, UniProt P08684); assay: Inhibition of CYP3A4 using BFC substrate by fluorometric assay; assay type: ADME; conditions: TDE = time-dependent effect
T2 sequence (P08684 whole entry): as above

[7] = target: T2, Cytochrome P450 3A4; assay: Inhibition of CYP3A4 using BFC substrate in which compound added to reaction mixture simultaneously with BFC substrate by fluorometric assay; assay type: ADME
[8] = target: T2, Cytochrome P450 3A4; assay: Inhibition of CYP3A4 using BFC substrate in which compound added to reaction mixture before addition of BFC substrate by fluorometric assay; assay type: ADME
[9] = Tmax in db/db mouse at 10 mg/kg, po administered as single dose by LC-MS/MS system method; assay type: ADME, organism-based; parameters: dose 10 mg/kg, route oral; conditions: in vivo
[10] = AUC (infinity) in db/db mouse at 10 mg/kg, po administered as single dose by LC-MS/MS system method; assay type: ADME, organism-based; parameters: time infinity, dose 10 mg/kg, route oral; conditions: plasma
[11] = tested on: Mus musculus; assay: (§1) Apparent volume of distribution during terminal phase in db/db mouse at 10 mg/kg, po administered as single dose by LC-MS/MS system method; assay type: ADME, organism-based; parameters: dose 10 mg/kg, route oral; conditions: in vivo
[12] = tested on: Mus musculus; assay: (§2) Half life in db/db mouse at 10 mg/kg, po administered as single dose by LC-MS/MS system method; assay type: ADME, organism-based; parameters: dose 10 mg/kg, route oral; conditions: in vivo
[13] = tested on: Mus musculus; assay: (§3) Cmax in db/db mouse at 10 mg/kg, po administered as single dose by LC-MS/MS system method; assay type: ADME, organism-based; parameters: dose 10 mg/kg, route oral; conditions: in vivo
[14] = tested on: Mus musculus; assay: Hypoglycemic effect in db/db mouse assessed as reduction in glucose AUC (0 to 8 hrs) at 100 mg/kg, po administered as single dose by hexokinase method relative to untreated control; assay type: functional; parameters: scale not given: the % may be the effect or the level left
[15] = as §1; assay type: ADME, organism-based; parameters: dose 10 mg/kg, route oral; conditions: db/db, in vivo, read-out: Vz/F
[16] = as §2; assay type: ADME, organism-based; parameters: dose 10 mg/kg, route oral; conditions: db/db, in vivo
[17] = as §3; assay type: ADME, organism-based; parameters: dose 10 mg/kg, route oral; conditions: db/db, in vivo
[18] = Apparent oral clearance in db/db mouse at 10 mg/kg, po administered as single dose by LC-MS/MS system method; assay type: ADME, organism-based; parameters: dose 10 mg/kg, route oral; conditions: in vivo

IC50 [2] [nM] | IC50 [7] [nM] | IC50 [8] [nM] | Compound | further results
9.9 | – | – | CCOc1ccc(Cc2ccc(CC)cc2)cc1[C@]1(O)C[C@H](CO)[C@@H](O)[C@H](O)[C@H]1O | Activity [1]: 39.1%; Activity [3]: Active; Activity [4]: inactive
11 | 76000 | 33000 | OC[C@H]1C[C@@H](c2cccc(Cc3ccc(C4CC4)cc3)c2)[C@H](O)[C@@H](O)[C@@H]1O | IC50 shift [5]: 2.3; inhibition (INH) [6]: tde
8.3 | – | – | CCc1ccc(Cc2cc([C@@H]3C[C@H](CO)[C@@H](O)[C@H](O)[C@H]3O)ccc2OC)cc1 | –
12 | > 50000 | > 50000 | CCc1ccc(Cc2ccc(OC)c([C@@H]3C[C@H](CO)[C@@H](O)[C@H](O)[C@H]3O)c2)cc1 | –
73 | > 50000 | > 50000 | COc1ccc(Cc2cccc([C@@H]3C[C@H](CO)[C@@H](O)[C@H](O)[C@H]3O)c2)cc1 | –
10 | 29000 | > 50000 | CCc1ccc(Cc2cc([C@]3(O)C[C@H](CO)[C@@H](O)[C@H](O)[C@H]3O)c(OC)cc2OC)cc1 | –
14 | – | – | CCc1ccc(Cc2ccc(OC)c([C@]3(O)C[C@H](CO)[C@@H](O)[C@H](O)[C@H]3O)c2)cc1 | –
– | – | – | COc1ccc(Cc2ccccc2O[C@@H]2C[C@H](CO)[C@@H](O)[C@H](O)[C@H]2O)cc1 | Tmax [9]: 15 min; AUC(0-inf) [10]: 3070 ng·h/mL; Vz/F [11]: 12.586 L/kg; t1/2 [12]: 161 min; Cmax [13]: 1640 ng/mL; Activity [14]: 41.6%
100 | – | – | CCc1ccc(Cc2cc([C@]3(O)C[C@H](CO)[C@@H](O)[C@H](O)[C@H]3O)ccc2OC)cc1 | –
6.7 | – | – | Cc1ccc([C@@H]2O[C@H](CO)[C@@H](O)[C@H](O)[C@H]2O)cc1Cc1ccc(-c2ccc(F)cc2)s1 [CANAGLIFLOZIN ANHYDROUS] | –
170 | – | – | CCc1ccc(Cc2ccc(C)c([C@]3(O)C[C@H](CO)[C@@H](O)[C@H](O)[C@H]3O)c2)cc1 | –
19 | 36600 | > 50000 | CCOc1ccc(Cc2ccc(CC)cc2)cc1[C@@H]1C[C@H](CO)[C@@H](O)[C@H](O)[C@H]1O | Activity [1]: 42.6%; Tmax [9]: 15 min; AUC(0-inf) [10]: 6240 ng·h/mL; Vd/F [15]: 3.63 L/kg; Activity [3]: Active; half-life [16]: 94.2 min; Cmax [17]: 3680 ng/mL; CL/F [18]: 26.7 mL/min/kg; Activity [4]: Active
49 | > 50000 | > 50000 | CCc1ccc(Cc2cccc([C@@H]3C[C@H](CO)[C@@H](O)[C@H](O)[C@H]3O)c2)cc1 | –
– | – | – | CCOC(=O)OC[C@H]1O[C@@H](Oc2ccccc2Cc2ccc(OC)cc2)[C@H](O)[C@@H](O)[C@@H]1O [SERGLIFLOZIN ETABONATE] | Tmax [9]: 15 min; AUC(0-inf) [10]: 2970 ng·h/mL; Vz/F [11]: 3.315 L/kg; Activity [3]: Active; t1/2 [12]: 49.2 min; Cmax [13]: 3360 ng/mL; Activity [4]: inactive
8.5 | 25700 | 40300 | CCc1ccc(Cc2cc([C@@H]3C[C@H](CO)[C@@H](O)[C@H](O)[C@H]3O)c(OC)cc2OC)cc1 | IC50 shift [5]: 0.6
52 | – | – | CCc1ccc(Cc2ccc(C)c([C@@H]3C[C@H](CO)[C@@H](O)[C@H](O)[C@H]3O)c2)cc1 | –
